Bridge positions count the residues as written; N and C are the ends. Square brackets hold non-standard residues; d marks the D form. Peptide text beside a SMILES is read from it. * marks the point of attachment. Palmitoyl = CCCCCCCCCCCCCCCC(=O)*; NMeK = CN[C@@H](CCCCN)C(=O)O; Dap = NC[C@H](N)C(=O)O

The values that follow come from patent US20180022780A1, “STABILIZATION ADRENOMEDULLIN DERIVATIVES AND USE THEREOF” (priority 2014, published 2018).

This test addresses T1, CLR fused to EYFP and RAMP2 fused to ECFP (Homo sapiens, UniProt O60895+Q16602).
T1 construct: EYFP; ECFP; expressed in transfected cells; host or cells: HEK-293 cells, transient co-transfection
As to the kind of experiment: cAMP assay (CRE luciferase reporter, HEK-293 cells transiently co-transfected with CLR and RAMP2). The test is classed as cell-based. As to conditions: Table 2, cAMP assay; HEK-293, CLR/RAMP2, CRE luciferase, 3 h stimulation, normalized to [G^14]ADM(14-52). In outline:
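HEK-293 cells transiently co-transfected with CLR-EYFP, RAMP2-ECFP and a CRE-luc2P luciferase reporter were stimulated with ligands (eight concentrations, triplicate) for 3 h at 37 °C. Luminescence was corrected to 5 µM forskolin, normalized to [G^14]ADM(14-52) standard, and fitted by non-linear regression to dose-response curves.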

T1 sequence (Q16602 23-461): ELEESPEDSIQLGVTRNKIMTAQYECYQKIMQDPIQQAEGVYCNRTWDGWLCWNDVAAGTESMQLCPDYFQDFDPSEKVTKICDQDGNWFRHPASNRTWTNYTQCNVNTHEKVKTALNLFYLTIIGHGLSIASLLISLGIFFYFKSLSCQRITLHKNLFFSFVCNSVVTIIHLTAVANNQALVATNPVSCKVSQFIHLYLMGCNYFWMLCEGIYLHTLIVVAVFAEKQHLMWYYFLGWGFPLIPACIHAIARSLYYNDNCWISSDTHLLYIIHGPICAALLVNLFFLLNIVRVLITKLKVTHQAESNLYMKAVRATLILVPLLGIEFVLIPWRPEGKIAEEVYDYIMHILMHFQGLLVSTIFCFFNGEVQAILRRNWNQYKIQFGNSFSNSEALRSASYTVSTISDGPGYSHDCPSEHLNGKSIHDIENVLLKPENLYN
T1 sequence (O60895 43-175): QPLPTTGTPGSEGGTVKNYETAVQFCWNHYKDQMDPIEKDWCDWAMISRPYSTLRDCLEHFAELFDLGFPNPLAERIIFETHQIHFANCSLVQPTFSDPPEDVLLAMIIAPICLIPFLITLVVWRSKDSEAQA

`CCCCCCCCCCCCCCCC(=O)NCCCC[C@H](N)C(=O)NCC(=O)N[C@H]1CNC(=O)CC[C@@H](C(=O)N[C@H](C(=O)N[C@H](C(=O)N[C@@H](CCC(N)=O)C(=O)N[C@@H](CCCCN)C(=O)N[C@@H](CC(C)C)C(=O)N[C@@H](C)C(=O)N[C@@H](Cc2c[nH]cn2)C(=O)N[C@@H](CCC(N)=O)C(=O)N[C@H](C(=O)N[C@@H](Cc2ccc(O)cc2)C(=O)N[C@@H](CCC(N)=O)C(=O)N[C@@H](Cc2ccccc2)C(=O)N[C@H](C(=O)N[C@@H](CC(=O)O)C(=O)N[C@@H](CCCCN)C(=O)N[C@@H](CC(=O)O)C(=O)N[C@@H](CCCCN)C(=O)N[C@@H](CC(=O)O)C(=O)N[C@@H](CC(N)=O)C(=O)N[C@H](C(=O)N[C@@H](C)C(=O)N2CCC[C@H]2C(=O)N[C@@H](CCCNC(=N)N)C(=O)N[C@@H](CO)C(=O)N(C)[C@@H](CCCCN)C(=O)N[C@H](C(=O)N[C@@H](CO)C(=O)N2CCC[C@H]2C(=O)N[C@@H](CCC(N)=O)C(=O)NCC(=O)N[C@@H](Cc2ccc(O)cc2)C(N)=O)[C@@H](C)CC)C(C)C)[C@@H](C)O)[C@@H](C)CC)C(C)C)[C@@H](C)O)NC(=O)[C@H]([C@@H](C)O)NC(=O)CNC(=O)[C@H](Cc2ccccc2)NC(=O)[C@H](CCCNC(=N)N)NC1=O` [Example 27, ((3S,9S,12S,15S,21S)-15-(2-((S)-2-amino-6-palmitamidohexanamido)acetamido)-9-benzyl-12-(3-guanidinopropyl)-3-((R)-1-hydroxyethyl)-2,5,8,11,14,18-hexaoxo-1,4,7,10,13,17-hexaazacyclohenicosane-21-carbonyl)-L-threonyl-[N-Me-K^46]ADM(22-52)] (H-K(Palmitoyl)G[Dap]RFGTETVQKLAHQIYQFTDKDKDNVAPRS[NMeK]ISPQGY-NH2; lactam 3-8) returned an EC50 of 3.4 nM.

The term EC50 denotes the concentration at which the effect is half-maximal. Read a high EC50 as lower potency in that assay.
